{"source": "patent US5039528A", "about": "“EAA antagonists as anti-emetic drugs” (priority 1989, dated 1991)", "key": {"[1]": {"conditions": "cited from earlier work; for penetration of blood brain barriers: statement in text; for BBB penetrability: Table 1"}, "humans": {"tested_on": "humans", "conditions": "humans; cited from earlier work"}, "NMDA receptors": {"tested_on": "NMDA receptors", "test": "Chick retina assay: protection against excitotoxic action of NMDA", "format": "cell-based", "text": "(§1) Antagonist potencies were established in a chick retina assay which has\n(§2) (NMDA, KA and Quis) for excitotoxic properties and EAA antagonists for\n(§3) potency in protecting the retina against the excitotoxic action of such\n(§4) agonists. The concentration of antagonist required to totally prevent the\n(§5) toxic action of an agonist was used to compare antagonists for potency.\n(§6) For purposes of illustration, the data were normalized by assigning a\n(§7) EAA antagonist properties have been described in each category. Antagonis\n(§8) potencies were established in a chick retina assay which has been used by\n(§9) Quis) for excitotoxic properties and EAA antagonists for potency in\n(§10) protecting the retina against the excitotoxic action of such agonists.\n(§11) concentration of antagonist required to totally prevent the toxic action\n(§12) of an agonist was used to compare antagonists for potency. For purposes o\n(§13) to kynurenic acid vs KA (see table 1) and all other values were adjusted"}, "KA receptors": {"tested_on": "KA receptors", "test": "Chick retina assay: protection against excitotoxic action of KA", "format": "cell-based", "text": "as §1, §2, §3, §4, §5, §6, §7, §8, §9, §10, §11, §12, §13"}, "Quis receptors": {"tested_on": "Quis receptors", "test": "Chick retina assay: protection against excitotoxic action of Quis", "format": "cell-based", "text": "as §1, §2, §3, §4, §5, §6, §7, §8, §9, §10, §11, §12, §13"}, "[2]": {"tested_on": "EAA receptors (NMDA, KA, Quis)", "conditions": "cited from earlier work"}, "neurons": {"tested_on": "neurons", "conditions": "cited from earlier work"}, "[3]": {"tested_on": "emesis associated with cancer chemotherapy", "conditions": "cited from earlier work; for side effects: high doses; for anti-emetic effect in cancer chemotherapy: in vivo"}, "[4]": {"conditions": "Table 2, normalized to kynurenic acid vs KA = 1"}, "[5]": {"conditions": "Table 1, normalized to kynurenic acid vs KA = 1"}}, "note": "Like-named read-outs stand apart in the source and are kept apart here.", "data": [{"smiles": "CCNC1(c2cccs2)CCCCC1=O", "note": "(racemic) [tilletamine]", "values": [{"measurement": "penetration of blood brain barriers", "setting": "[1]", "value": "permeate easily through BBB's"}, {"measurement": "psychotic effects", "setting": "humans", "value": "psychotic effects"}, {"measurement": "EAA antagonist potency vs NMDA", "setting": "NMDA receptors; [4]", "value": 200}]}, {"smiles": "O=C(O)c1cc(O)c2ccc(Cl)cc2n1", "note": "[7-Cl-kynurenate, 7-chloro-kynurenic acid]", "values": [{"measurement": "BBB penetrability", "setting": "[1]", "value": "very low"}, {"measurement": "penetration of blood brain barriers", "setting": "[1]", "value": "do not penetrate blood-brain barriers"}, {"measurement": "EAA antagonist potency vs NMDA", "setting": "NMDA receptors; [5]", "value": 10}, {"measurement": "EAA antagonist potency vs KA", "setting": "KA receptors; [5]", "value": 4}, {"measurement": "EAA antagonist potency vs Quis", "setting": "Quis receptors; [5]", "value": 3}, {"measurement": "EAA receptor subtype order of blockade", "setting": "[2]", "value": "NMDA>KA>Quis"}]}, {"smiles": "N[C@H](CCCP(=O)(O)O)C(=O)O", "note": "[D-AP5, D-2-amino-5-phosphonopentanoate]", "values": [{"measurement": "EAA antagonist potency vs NMDA", "setting": "NMDA receptors; [5]", "value": 40}]}, {"smiles": "N[C@H](CCCCCP(=O)(O)O)C(=O)O", "note": "[D-AP7, D-2-amino-7-phosphonoheptanoate]", "values": [{"measurement": "BBB penetrability", "setting": "[1]", "value": "very low"}, {"measurement": "penetration of blood brain barriers", "setting": "[1]", "value": "do not readily penetrate blood brain barriers"}, {"measurement": "EAA antagonist potency vs NMDA", "setting": "NMDA receptors; [5]", "value": 13}]}, {"smiles": "O=c1[nH]c2cc([N+](=O)[O-])c([N+](=O)[O-])cc2[nH]c1=O", "note": "[DNQX, 6,7-dinitro-quinoxaline-2,3-dion]", "values": [{"measurement": "BBB penetrability", "setting": "[1]", "value": "very low"}, {"measurement": "penetration of blood brain barriers", "setting": "[1]", "value": "do not penetrate blood-brain barriers"}, {"measurement": "EAA antagonist potency vs NMDA", "setting": "NMDA receptors; [5]", "value": 10}, {"measurement": "EAA antagonist potency vs KA", "setting": "KA receptors; [5]", "value": 20}, {"measurement": "EAA antagonist potency vs Quis", "setting": "Quis receptors; [5]", "value": 40}, {"measurement": "block of non-NMDA vs NMDA receptors", "setting": "[2]", "value": "block non-NMDA receptors substantially more powerfully than NMDA receptors"}, {"measurement": "potency compared with kynurenic or 7-chloro-kynurenic acid", "setting": "[2]", "value": "significantly more powerful"}]}, {"smiles": "OC(CN1CCC(Cc2ccc(F)cc2)CC1)c1ccc(Cl)cc1", "note": "(stereo not drawn) [SL 82,0715]", "values": [{"measurement": "EAA antagonist potency vs NMDA", "setting": "NMDA receptors; [5]", "value": 50}]}, {"smiles": "CN1[C@@H]2CC[C@H]1C[C@@H](OC(c1ccccc1)c1ccccc1)C2", "note": "[benztropine]", "values": [{"measurement": "reduction of the neurotoxicity of NMDA antagonists that penetrate the BBB", "setting": "neurons; in vivo", "value": "effective in reducing the neurotoxicity"}]}, {"smiles": "OC(CCN1CCCCC1)(c1ccccc1)C1CC2C=CC1C2", "note": "(stereo not drawn) [biperiden]", "values": [{"measurement": "reduction of the neurotoxicity of NMDA antagonists that penetrate the BBB", "setting": "neurons; Ser. No. 424,548", "value": "effective in reducing the neurotoxicity"}]}, {"smiles": "CN1CCN(CCCN2c3ccccc3Sc3ccc(Cl)cc32)CC1", "note": "[compazine]", "values": [{"measurement": "side effects", "setting": "[3]", "value": "severe side effects such as abnormal motor movements, muscle rigidity, and tremors"}, {"measurement": "anti-emetic effect in cancer chemotherapy", "setting": "[3]", "value": "only weakly active as anti-emetics"}]}, {"smiles": "COc1ccc2c(c1)[C@]13CCCC[C@@H]1[C@H](C2)N(C)CC3", "note": "[dextromethorphan]", "values": [{"measurement": "EAA antagonist potency vs NMDA", "setting": "NMDA receptors; [4]", "value": 20}]}, {"smiles": "CN1CC[C@@]23CCCC[C@@H]2[C@@H]1Cc1ccc(O)cc13", "note": "[dextrorphan]", "values": [{"measurement": "EAA antagonist potency vs NMDA", "setting": "NMDA receptors; [4]", "value": 40}]}, {"smiles": "CCN(CC)C(C)CN1c2ccccc2Sc2ccccc21", "note": "(stereo not drawn) [ethopropazine]", "values": [{"measurement": "EAA antagonist potency vs NMDA", "setting": "NMDA receptors; [4]", "value": 40}]}, {"smiles": "O=C(CCCN1CCC(O)(c2ccc(Cl)cc2)CC1)c1ccc(F)cc1", "note": "[haloperidol]", "values": [{"measurement": "side effects", "setting": "[3]", "value": "severe side effects such as abnormal motor movements, muscle rigidity, and tremors"}, {"measurement": "anti-emetic effect in cancer chemotherapy", "setting": "[3]", "value": "only weakly active as anti-emetics"}]}, {"smiles": "CC(C(O)c1ccc(O)cc1)N1CCC(Cc2ccccc2)CC1", "note": "(stereo not drawn) [ifenprodil]", "values": [{"measurement": "EAA antagonist potency vs NMDA", "setting": "NMDA receptors; [5]", "value": 100}]}, {"smiles": "CNC1(c2ccccc2Cl)CCCCC1=O", "note": "(stereo not drawn) [ketamine]", "values": [{"measurement": "psychotic effects", "setting": "humans", "value": "psychotic effects"}]}, {"smiles": "C=CCC1(C(C)CCC)C(=O)N=C(S)NC1=O", "note": "(stereo not drawn) [thiamylal]", "values": [{"measurement": "EAA antagonist potency vs NMDA", "setting": "NMDA receptors; [4]", "value": 13}, {"measurement": "EAA antagonist potency vs KA", "setting": "KA receptors; [4]", "value": 3}, {"measurement": "EAA antagonist potency vs Quis", "setting": "Quis receptors; [4]", "value": 2}]}, {"smiles": "CCCC(C)C1(CC)C(=O)NC(=S)NC1=O", "note": "(stereo not drawn) [thiopental]", "values": [{"measurement": "EAA antagonist potency vs NMDA", "setting": "NMDA receptors; [4]", "value": 7}, {"measurement": "EAA antagonist potency vs KA", "setting": "KA receptors; [4]", "value": 2}, {"measurement": "EAA antagonist potency vs Quis", "setting": "Quis receptors; [4]", "value": 2}]}, {"smiles": "NC(CCCC(=O)O)C(=O)O", "note": "(stereo not drawn) [α-amino adipate]", "values": [{"measurement": "EAA antagonist potency vs NMDA", "setting": "NMDA receptors; [5]", "value": 5}]}]}
